3 compounds from ChEMBL document CHEMBL1255450, “Detection of E119V and E119I mutations in influenza A (H3N2) viruses isolated from an immunocompromised patient: challenges in diagnosis of oseltamivir resistance” (Antimicrob Agents Chemother, 2010) can be followed below.

Test [1] relates to Influenza A virus. The test is described as follows: Antiviral activity against Influenza A virus (A/Washington/01/2007 (H3N2)) measured in MDCK cells by fluorescent NA inhibition assay. Format: functional, organism-based.
Test [2] concerns Influenza A virus. Description: Antiviral activity against Influenza A virus (A/Washington/01/2007 (H3N2)) measured in MDCK cells by NA inhibition assay. Format: functional, organism-based.

Structures are written as SMILES.

Consider `C/C=C\[C@@H]1C[C@H](C(=O)O)N[C@H]1[C@@H](NC(C)=O)[C@](C)(CCC)OC`, for which the IC50 in the test on Influenza A virus [1] is 1.22 nM; in the test on Influenza A virus [2], 0.74 nM.

With `CCOC(=O)C1=C[C@@H](OC(CC)CC)[C@H](NC(C)=O)[C@@H](N)C1` [OSELTAMIVIR], the IC50 in the test with Influenza A virus [1] turned out to be 0.44 nM; in the test with Influenza A virus [2] it was 0.16 nM.

In the case of `CCC(CC)[C@H](NC(C)=O)[C@@H]1[C@H](O)[C@@H](C(=O)O)C[C@H]1NC(=N)N` [PERAMIVIR ANHYDROUS], the IC50 with Influenza A virus [1] came out at 0.5 nM; in the test with Influenza A virus [2] it was 0.28 nM.
